Here are results for seven compounds from ChEMBL document CHEMBL1138724, “Synthesis and anticonvulsant activity of new 2-substituted-5- [2-(2-fluorophenoxy)phenyl]-1,3,4-oxadiazoles and 1,2,4-triazoles” (Bioorg Med Chem Lett, 2004).

The subject of data set [1] is Mus musculus. Briefly: Effective dose required to protect mice against convulsion induced by a lethal dose of PTZ (100 mg/kg) was determined. The class given is functional.
The nature of data set [2]: Lethal dose in mice. Format: toxicity. To be noted: mouse, in vivo.
Data set [3] is filed under the species Mus musculus. Description: Effective dose required to protect mice against convulsion induced electroshock was determined by MES test. The class given is functional.
In data set [4] the test system is Mus musculus. Description: Effective dose required to protect mice against convulsion induced by a lethal dose of PTZ (100 mg/kg) was determined in the presence of 10 mg/kg flumazenil. The class given is functional.
Data set [5] concerns Mus musculus. Description: Effective dose required to protect mice against convulsion induced electroshock was determined by MES test in the presence of 10 mg/kg flumazenil.

As a reminder, the ED50 is the midpoint of the dose-response relation. One may read the LD50 as the dose expected to kill half of the subjects tested. Read a low LD50 as a more toxic substance.

In the data set with Mus musculus [1], `CCOc1n[nH]c(-c2ccccc2Oc2ccccc2F)n1` gave an ED50 of 84.8 mg/kg. Besides, the LD50 in data set [2] is over 300 mg/kg.
Regarding `Fc1ccccc1Oc1ccccc1-c1nnc(S)o1`, the values for the 50% effective dose (ED50) in the data set on Mus musculus [1] and in the data set filed under Mus musculus [3] were over 100 mg/kg and 43.1 mg/kg, respectively. In data set [2], this compound gave an LD50 of over 300 mg/kg.
Regarding `Nc1nnc(-c2ccccc2Oc2ccccc2F)o1`, the ED50 was determined as 39.2 mg/kg in the data set on Mus musculus [4] and 9.57 mg/kg in the data set listed under Mus musculus [3]. The compound further showed an LD50 in data set [2] of over 300 mg/kg.
For the compound `Fc1ccccc1Oc1ccccc1-c1n[nH]c(S)n1`, the ED50 in the data set with Mus musculus [1] is over 100 mg/kg; in the data set listed under Mus musculus [3], 92 mg/kg. In data set [2], the LD50 is over 300 mg/kg.
`Oc1nnc(-c2ccccc2Oc2ccccc2F)o1`: the 50% effective dose (ED50) in the data set listed under Mus musculus [3] was over 100 mg/kg. Further, in data set [2], the LD50 is over 300 mg/kg.
In the data set listed under Mus musculus [3], `CSc1nnc(-c2ccccc2Oc2ccccc2F)o1` registered an ED50 of over 100 mg/kg. Besides, the LD50 in data set [2] is over 300 mg/kg.
Take `CN1C(=O)CN=C(c2ccccc2)c2cc(Cl)ccc21` [DIAZEPAM]: the values for the ED50 in the data set with Mus musculus [1] and with Mus musculus [5] were 1.87 mg/kg and 1.57 mg/kg, respectively.
